Entries after “also recorded” stand apart in the source; their conditions may differ. Structures can show the parent of a compound that is named as a salt. Where two headings read alike, the source gives them in different places. Where a SMILES comes first, the peptide text is derived from it.
Tested on: MLO-Y4 osteocytes
Test: High-throughput drug screening of primary cilia length and incidence
Type: cell-based
Description: MLO-Y4 osteocytes were maintained on collagen I-coated dishes in MEMα (Life_Technologies) supplemented with 5% fetal bovine serum (FBS), 5% calf serum (CS), and 1% penicillin/streptomycin (P/S) at 37° C. and 5% CO2. Osteocytes were then seeded onto 384-well collagen-coated plates for 72 hours before fixation. […] These libraries include Tocris, Sigma LOPAC, Selleck Chemical, Prestwick, and Spectrum commercially available compound libraries. All cell seeding and plate handling was performed with the Perkin Elmer cell:explorer workstation.
Cells were fixed in 4% paraformaldehyde and permeabilized with 0.1% Triton-X 100 (Sigma). 10% goat serum (vendor) was used for blocking. Cilia were stained using a monoclonal antibody against acetylated α-tubulin (1:20) from a C3B9 hybridoma cell line, and visualized with A F488 (1:1000, ThermoFisher). Nuclei were visualized with Hoechst. Cells were imaged using a GE INCell 2000 high-throughput imager at 40× magnification. 4 fields of view were taken per well.
Each pair of nuclei and cilia images was first analyzed individually, then the entire population was examined to evaluate each compound's effect on cilia length and incidence. A custom MATLAB script was developed to perform all image analysis. This script first utilizes an enhanced implementation of a watershed transform, which is a segmentation tool which enables detection of similarly shaped overlapping particles in noisy images by the procedural whittling down of pixels found close to the edge of such particles. The augmentation of the algorithm incorporates thresholding for noise removal based on signal intensity and object size, nuclei dilation to exclude non-cellular artifacts, as well as skeletonization of cilia to quantify length. The results of the analysis are number of nuclei, number of cilia, and average cilia length in each image.
Compounds were selected based on deviation from the population mean. Each well was normalized to vehicle control images on each plate, allowing the establishment of a normalized population mean. Hits were chosen based on compounds whose triplicate mean was furthest (based on standard deviation away) from the population mean. […] Compounds were classified based on mechanism of action.
To identify compounds that modulate primary cilia formation a high-throughput platform was developed to automate cell culture, staining, imaging, and analysis, as shown in schematic form in FIG. 18. […] Cells were cultured on 384-well plates, and treated with small molecules with known biologic activity, enabling classification of mechanisms of action. Drug treatment was applied for 16 hours at 10 μM concentration, performed in triplicate, before fixation and immunostaining of primary cilia. Cells were then imaged using the GE INCell 2000 High Content Analyzer, capturing 4 fields of view per well at 40× magnification. Additionally, each plate contains 8 wells of DMSO vehicle control.
A MATLAB script was developed to detect and analyze changes in ciliogenesis. […] A representative exemplary image (FIG. 19A) is cropped to better display features, scale bar represents 30 μm. A custom MATLAB script was used to identify nuclei and cilia for analysis (FIG. 19B). […] Objects are further filtered based on size and signal intensity.
Cilia length and incidence for each field of view were normalized to vehicle control on that individual plate. This allowed development of a normalized population average and standard deviation. […] To control for toxic effects only small molecules with at least 40% viability, based on number of nuclei versus control, were selected as hits. Furthermore, compounds repeated between multiple libraries eliciting the same effect on cilia length or incidence were excluded, such that only one of the repeated compounds was selected as a hit.

[1] = 10 μM, 16 hours, triplicate, normalized to vehicle control, standard deviation away from the population average

Structure (SMILES) | Average Length SD Away [1] [SD] | Average Incidence SD Away [1] [SD] | other results
CN(Cc1cnc2nc(N)nc(N)c2n1)c1ccc(C(=O)N[C@@H](CCC(=O)O)C(=O)O)cc1 (racemic) [Amethopterin (RS)] | 2.927 |  | 
C[C@@H](NC(=O)/C(C#N)=C/c1ccc(O)c(O)c1)c1ccccc1 (single isomer, unassigned) [Tyrphostin B44 (−) enantiomer] | 1.877 |  | 
O=C(/C=C/c1ccccc1)c1ccc(O[C@@H]2O[C@H](CO)[C@@H](O)[C@H](O)[C@H]2O)cc1O [2 4 -DIHYDROXYCHALCONE 4 -GLUCOSIDE] | 1.598 |  | 
COc1cc2c(cc1O)CC[C@@H]1[C@@H]2CC[C@]2(C)[C@@H](O)CC[C@@H]12 [2-Methoxyestradiol] | 1.62 |  | 
O=C1CN=C(c2cccc(Br)c2)c2oc3ccccc3c2N1 [5-BDBD] | 1.92 |  | 
O=c1[nH]cc(F)c(=O)[nH]1 [5-fluorouracil] | 1.775 |  | 
NC(=O)c1ccc(N)nc1 [6-AMINONICOTINAMIDE] | 2.008 |  | 
CC[C@@]1(O)C(=O)OCc2c1cc1n(c2=O)Cc2cc3cc(O)ccc3nc2-1 [10-HYDROXYCAMPTOTHECIN] | 2.11 |  | 
COc1ccc2oc(-c3ccccc3OC)cc(=O)c2c1 [62 -DIMETHOXYFLAVONE] | 1.745 |  | 
O.c1cnc2c(c1)ccc1cccnc12 [110-Phenanthroline monohydrate] | 1.838 |  | 
N#C/C(=C\c1ccc(O)c(O)c1)C(=O)Nc1ccccc1 [AG 494] | 1.575 |  | 
COc1ccc(C(=O)c2c(C)n(CCN3CCOCC3)c3cc(I)ccc23)cc1 [AM 630] | 1.741 |  | 
NC(=O)c1ncn([C@@H]2O[C@H](CO)[C@@H](O)[C@H]2O)c1N [Acadesine] |  | 1.847 | 
CC(=O)Nc1ccccc1 [Acetanilide (Antifebrin), Acetanilide] |  | 1.696 | 
CCC[S+]([O-])c1ccc2[nH]c(NC(=O)OC)nc2c1 (stereo not drawn) [Albendazole Oxide (Ricobendazole), Albendazole Oxide] |  | 2.017 | 
CC(NC(C)(C)C)C(=O)c1cccc(Cl)c1 (stereo not drawn) [Amfebutamone (Bupropion), Amfebutamone] |  | 1.605 | 
Cn1c(=O)c2[nH]cnc2n(C)c1=O.Cn1c(=O)c2[nH]cnc2n(C)c1=O.NCCN [Aminophylline ethylenediamine] |  | 2.59 | 
CCCCc1oc2ccccc2c1C(=O)c1cc(I)c(OCCN(CC)CC)c(I)c1 [Amiodarone HCl] |  | 3.38 | 
O=C1NC(=O)c2c1c1c3ccccc3[nH]c1c1[nH]c3ccccc3c21 [Arcyriaflavin A] |  | 1.892 | 
COC(=O)[C@H](Cc1ccccc1)NC(=O)[C@@H](N)CC(=O)O [Aspartame] (H-Asp-Phe-OMe) |  | 1.732 | 
CN1[C@@H]2CC[C@H]1C[C@@H](OC(=O)C(CO)c1ccccc1)C2 (stereo partly drawn) [Atropine] |  | 1.694 | 
COc1ccc(C(=O)CC(=O)c2ccc(C(C)(C)C)cc2)cc1 [Avobenzone (Parsol 1789), Avobenzone] |  | 1.502 | 
CN1C(=O)COc2c(C(=O)NC3CN4CCC3CC4)cc(Cl)cc21 (stereo not drawn) [Azasetron HCl] |  | 1.653 | 
COc1ccc(-c2cc3nccn3c(Nc3ncccc3C(N)=O)n2)cc1OC.Cl.O [BAY 61-3606 hydrochloride hydrate] | 1.54 |  | 
CNCCc1ccccn1 [BETAHISTINE HYDROCHLORIDE] | 1.532 |  | 
C=CCN1C[C@H](C)N([C@H](c2ccc(C(=O)N(CC)CC)cc2)c2cccc(O)c2)C[C@H]1C [BW 373U86] | 1.553 |  | 
COC(=O)C1=C(C)NC(C)=C(C(=O)OC2CCCN(Cc3ccccc3)C2)C1c1cccc([N+](=O)[O-])c1 (stereo not drawn) [Benidipine hydrochloride] |  | 1.811 | 

Structure (SMILES) | Average Length SD Away [1] [SD] | Average Incidence SD Away [1] [SD] | other results
CC(C)(C)CC(C)(C)c1ccc(OCCOCC[N+](C)(C)Cc2ccccc2)cc1 [Benzethonium chloride] |  |  | Average Length SD Away: 5.179 SD
CC(C)NCC(O)COc1ccc(CCOCC2CC2)cc1 (stereo not drawn) [Betaxolol hydrochloride (Betoptic), Betaxolol hydrochloride] |  | 1.631 | 
CC(C[N+](C)(C)C)OC(N)=O (stereo not drawn) [Bethanechol chloride] |  | 1.764 | 
c1ccc(-c2ccc(C(c3ccccc3)n3ccnc3)cc2)cc1 (stereo not drawn) [Bifonazole] |  | 1.664 | 
CN(Cc1cc(Br)cc(Br)c1N)C1CCCCC1 [Bromhexine HCl] | 1.547 | 1.882 | 
CCCCOc1ccc(CC(=O)NO)cc1 [Bufexamac] | 3.676 | 2.326 | classification as hit increasing cilia length in the screen (10 μM, 16 hours, hit = 1.5 standard deviation above population average, at least 40% viability): listed as a hit increasing length; also recorded: listed as hits
CCCCN1CCCCC1C(=O)Nc1c(C)cccc1C (stereo not drawn) [Bupivacaine hydrochloride (Marcain), Bupivacaine hydrochloride] |  | 1.827 | 
CCCCC/N=c1\ccn(Cc2ccccc2)c2ccccc12 [CP 339818 hydrochloride] | 1.715 |  | 
CCc1c2c(nc3ccc(OC(=O)N4CCC(N5CCCCC5)CC4)cc13)-c1cc3c(c(=O)n1C2)COC(=O)[C@]3(O)CC.Cl [CPT 11] | 1.894 | 1.633 | 
CN1Cc2ccccc2[C@@H]2c3cccc4[nH]cc(c34)C[C@H]21 [CY 208-243] | 2.567 |  | 
C[C@@H]1C[C@@H]([C@H](O)CC2CC(=O)NC(=O)C2)C(=O)[C@@H](C)C1 [CYCLOHEXIMIDE] | 3.609 |  | 
CN/C(=N/CCSCc1nc[nH]c1C)NC#N [Cimetidine (Tagamet), Cimetidine] |  | 1.562 | 
Nc1nc(Cl)nc2c1ncn2[C@H]1C[C@H](O)[C@@H](CO)O1 [Cladribine] |  | 1.604 | 
CCCC(=O)OCOC(=O)C1=C(C)NC(C)=C(C(=O)OC)C1c1cccc(Cl)c1Cl (stereo not drawn) [Cleviprex (Clevidipine), Clevidipine] |  | 1.837 | 
CC1(C)C(=O)C=C[C@]2(C)[C@H]3CC[C@@]4(C)[C@H](c5ccoc5)OC(=O)[C@H]5O[C@]54[C@]3(C)C(=O)C[C@@H]12 [DEACETOXY-7-OXOGEDUNIN] | 1.843 |  | 
COc1cc2c(cc1OC)[C@@H]1C(=O)c3ccc4c(c3O[C@@H]1CO2)C=CC(C)(C)O4 [DEGUELIN(−)] | 2.48 |  | 
C[C@H](CCC(=O)O)[C@H]1CC[C@H]2[C@@H]3C(=O)C[C@@H]4CC(=O)CC[C@]4(C)[C@H]3CC(=O)[C@]12C [DEHYDROCHOLIC ACID] | 1.611 |  | 
CC(=O)O[C@@H]1C[C@H]2C(C)(C)C(=O)C=C[C@]2(C)[C@H]2CC[C@]3(C)C(=CC(=O)O[C@H]3c3ccoc3)[C@@]21C [DEOXYGEDUNIN] | 2.161 |  | 
CC(=O)O[C@H]1C[C@@H](OC(C)=O)C(C)(C)[C@@H]2C[C@@H](OC(C)=O)[C@@]3(C)C4=CC(=O)O[C@@H](c5ccoc5)[C@]4(C)CC[C@@H]3[C@@]12C [DEOXYKHIVORIN] | 1.681 |  | 
COc1ccc2c(c1OC)OC[C@@H](c1ccc(OC)c(OC)c1OC)C2 [DUARTIN DIMETHYL ETHER] | 2.07 |  | 
Cc1cccc(Cc2c[nH]cn2)c1C [Detomidine HCl] |  | 1.922 | 
Cc1cccc([C@H](C)c2cnc[nH]2)c1C [Dexmedetomidine HCl (Precedex), Dexmedetomidine HCl] |  | 2.924 | 
O=C[C@H](O)[C@@H](O)[C@H](O)[C@H](O)CO [Dextrose (D-glucose), D-glucose] |  | 1.518 | 
N#CC(c1ccc(Cl)cc1)c1c(Cl)cc(-n2ncc(=O)[nH]c2=O)cc1Cl (stereo not drawn) [Diclazuril] |  | 1.668 | 
CN(C)CCOC(c1ccccc1)c1ccccc1 [Diphenhydramine HCl (Benadryl), Diphenhydramine HCl] |  | 1.928 | 
c1ccc2c(c1)[I+]c1ccccc1-2 [Diphenyleneiodonium chloride] | 2.603 |  | 
